In US20190167771A1, “CONTROL ANGIOGENESIS BY REGULATING PHOSPHORYLATION OF SERYL-tRNA SYNTHETASE (SerRS)” (The Scripps Research Institute, priority 2016, published 2019):

Key:
[1] = system: 3B11 endothelial cells; assay: Matrigel plug angiogenesis assay with stably transfected 3B11 cells; type: in vivo; settings: 3B11 cells stably transfected with mouse SerRS gene, C3H/HeJ mice, 14 days
Procedure: In FIG. 4A, mouse 3B11 endothelial cells were stably transfected with mouse wild type SerRS or mutant SerRS and the expression of SerRS were examined by immunoblot with anti-SerRS antibody and quantified by the density of the bands. In FIGS. 4B-C, Matrigel plug angiogenesis assay was performed with stably transfected 3B11 cells in C3H/HeJ mice. Matrigel plugs (dash lines enclosed regions) excised 14 days after implantation were analyzed by immunohistochemistry for CD31 (FIG. 4B) and microvessel density was quantified (FIG. 4C) (n=10-15).
A total of 10^6 of stably transfected 3B11 cells were resuspended in 100 μl of DMEM medium supplemented with 10% FBS and then mixed with 200 μl of ice-cold matrigel (BD Biosciences, San Jose, Calif., USA) liquid on ice. The 300 μl of cell and matrigel mixture was injected subcutaneously into a flank of C3H/HeJ mice (two injection sites per mouse and 5-6 mice in each group) (Jackson Laboratory). After inoculation for 14 days, the matrigel plugs were excised and frozen in Tissue-Tek® OCT compound for cryostat sectioning. All the mouse experiments were conducted according to the guidelines established by the Institutional Animal Care and Use Committee (IACUC) at The Scripps Research Institute, IACUC approval protocol number 13-0003.
(§1) 5-μm sections from freshly frozen tumor xenograft and matrigel plugs were treated with acetone and 3% H2O2 to block endogenous peroxidase. After 3-5 times wash and goat serum block, the sections were incubated with an anti-CD31 antibody (1:3000; Cell Signaling Technology) overnight at 4° C. The blood vessels were counted in 5-10 random viable fields (120×) in tumor xenograft samples and microvessel density in matrigel plugs was quantified by measuring the CD31 staining density using Image J software. To detect the hypoxia, we incubated the slides with anti-HIF1α antibody (1:100; Novus Biologicals).
A matrigel plug angiogenesis assay was used. […] At the same time, the microvasculature in the plug was evaluated by CD31 immuno-staining.

[2] = system: MDA-MB-231 cells; assay: MDA-MB-231 tumor xenograft model, tumor angiogenesis and growth; type: in vivo, mouse; settings: for tumor angiogenesis (CD31 staining): MDA-MB-231 stably transfected with human SerRS gene (~10-fold overexpression), NSG mice, two weeks
Description: In FIG. 5A, human breast cancer cells MDA-MB-231 were stably transfected with human wild type (SerRS^WT) and mutant SerRS (SerRS^AA, SerRS^DD). The expression of SerRS was monitored by immunoblot. In FIGS. 5B-C, the engineered MDA-MB-231 cells (10^6 per mouse) were implanted into mouse fat pad in mammal glands to form tumor xenografts. 14 days later, tumor xenografts were excised and subjected to immunohistochemistry for CD31 (FIG. 5B) and subsequent quantification of blood vessels (FIG. 5C) (n=5-6). In FIGS. 5D-F, MDA-MB-231 cells (10^6 per mouse) stably transfected with SerRS^WT, SerRS^AA, HIF1-specific shRNA (HIF^KD), both SerRS^AA and HIF^KD or empty vector were implanted into mouse fat pad in mammal glands. The sizes of the tumor xenografts were measured until the mice were sacrificed on 35 days (FIG. 5D) and the tumor angiogenesis was measured by immunohistochemistry for CD31 (FIG. 5E) and VEGFA (FIG. 5F) (n=4-10). Scale bars represent 100 μm.
[…] MDA-MB-231 cells stably transfected with vectors expressing wild type human SerRS, SerRS^S101A/S241A, or SerRS^S101D/S241D were subcutaneously injected into the mammal glands of 6-8-week-old female NOD.Cg-Prkdc^scidIl2rg^tmJWjl/SzJ mice (six mice in each group) (Jackson Laboratory). 14 days after injection, the tumor xenograft were separated from mice and frozen in Tissue-Tek® OCT compound for cryostat sectioning.
as §1
This example describes experiments studying the activity of SerRS^S101A/S241A and the effect of SerRS phosphorylation in hypoxia-induced angiogenesis in mammal.
Because hypoxia-induced angiogenesis is critical for solid tumor growth, experiments were performed to determine if hypoxia-induced SerRS phosphorylation/inactivation is important for tumor angiogenesis. Human breast cancer cells MDA-MB-231 were stably transfected with human SerRS^WT, SerRS^S101A/S241A, or SerRS^S101D/S241D gene to give high levels of overexpression (˜10-fold) compare to that of the endogenous protein (FIG. 4D). The engineered cells were implanted subcutaneously into the mammal glands of immune deficient NOD scid gamma (NSG) mice. Two weeks later, the vasculature in the tumor xenografts were examined by CD31 staining (FIGS. 4E and 4F). […]

Row | Substance | microvessel formation in the matrigel plug (CD31) [1] | tumor angiogenesis (CD31 staining) [2] | angiogenesis and tumor growth compared with HIF-1 knockdown ([2]; murine model of triple negative human breast cancer, overexpression)
1 | SerRS^S101A/S241A: phosphorylation-deficient human SerRS double mutant, serine 101 and 241 to alanine, SEQ ID NO: 4 (mouse version in matrigel assay) | strongly suppressed the microvessel formation | much stronger inhibition of angiogenesis compared to SerRS^WT | suppress angiogenesis and tumor growth much more robustly than the knockdown of HIF-1
2 | SerRS^S101D/S241D: SerRS with double substitutions of S101 and S241 with aspartic acid, mimics the phosphorylated SerRS | did not suppress microvascular formation | strong activity in promoting tumor angiogenesis | –
3 | SerRS^WT: wildtype human seryl-tRNA synthetase protein, SEQ ID NO: 1 (mouse wild type used in the 3B11 matrigel assay) | did not suppress microvascular formation | suppressed tumor angiogenesis | –
